Experimental data published in patent publication US11759480B2, “Compositions and methods for CAR T cell therapy” (ENDOCYTE, INC., priority 2017, dated 2023).

What was measured:
[1] = system: naïve mice without tumors; experiment: CAR-T cells with EC17 in naïve mice without tumors (Example 25); type: in vivo; settings: 500 nmoles/kg three times per week
Protocol: Five million CAR-T cells were injected (i.v.) into naïve mice without tumors. 500 nmoles/kg EC17 was administrated three times per week. Mice were monitored for 5 weeks, and some were euthanized every week to evaluate organs.

OV90 = experiment: EC17 dependent anti-tumor activity, OV90 xenograft (Example 26); type: in vivo, NSG mice; settings: 500 nmoles/kg once per week, 5 million CAR-T
From the text: Immunodeficient NSG mice (Jackson Laboratory) were used to show the efficacy of CAR T cell anti-tumor activity with a single dose of EC17 per week. Two folate receptor expressing cancer cell lines were used to establish subcutaneous solid tumor xenografts: MDA-MB-231 has high folate receptor expression, while OV90 has low folate receptor expression. When tumor volume of around 100-250 mm^3 was reached, mice were divided into two groups. Mice in the “EC17 500 nmol/kg” group (nmol/kg is equivalent to nmoles/kg as used in this patent application for the bridge) were injected with 500 nmoles/kg of body weight of EC17, while mice in the “no EC17” group were not injected with EC17. Four hours later, mice in both groups were administered 5 million anti-FITC CAR-T cells. After initial administration of EC17 and CAR-T cells, only mice in the “EC17 500 nmol/kg” group were injected (i.v.) with 500 nmoles/kg of EC17 once per week. Anti-tumor efficacy was monitored by tumor volume.

KB cells = experiment: Anti-fluorescein CAR T cell activity against KB cells in vitro (Example 43); type: cell-based; settings: CAR T:KB 10 to 1
Protocol: (§1) FR positive cancer cell lines (e.g. KB or MDA-MB-231 cells) were seeded at density of 10^4 cells/100 μl media into 96 well plates and grown overnight. Anti-fluorescein CAR T cells were added to each well in the absence or presence of bridge molecules. After co-incubation for 6-24 hours, plates were centrifuged at 350×g for 10 min to remove debris and supernatants were analyzed for lactate dehydrogenase release (cell death analysis) using Pierce™ LDH cytotoxicity assay kit (Thermo Fisher Scientific, MA) and interferon γ (IFNγ) levels using human IFNγ ELISA kit (Biolegend, CA), while pellets were either evaluated for CAR T cell activation by staining with anti-human CD69 APC (Clone: FN50, Biolegend, CA) or examined for CAR T cell proliferation by culturing for 5 days in TexMACS™ medium (Miltenyi Biotech Inc, CA) containing 1% penicillin and streptomycin sulfate and quantitating by flow cytometry using the intrinsic GFP fluorescence and staining with anti-human CD3 APC antibody (Clone:HIT3a, Biolegend, CA).

SKOV-3 = experiment: FITC-CAR-T/EC17 therapy, SKOV-3 model (Example 28); type: in vivo, NSG mice; settings: 500 nmol/kg weekly, 5 million FITC-CAR-T
Protocol: To test whether FITC-CAR-T/EC17 therapy has anti-tumor activity in various FR+ tumor models, NSG mice were subcutaneously implanted with MDA-MB-231 (triple negative breast cancer cell line), OV90 (human ovarian cancer cell line), KB (human cervical adenocarcinoma cell line), SKOV-3 (human ovarian carcinoma cell line), or HEK293-FRa (HEK293 stably-transfected with human FRa). When tumor size reached […], one dose of EC17 at 500 nmol/kg of body weight was injected by tail vein followed with administering of 5 million FITC-CAR-T cells 4 hours later. 500 nmol/kg EC17 was dosed once every week after the initial EC17/CAR-T administration (about day 7), tumor size and body weights of mice were monitored three times per week. The EC17 dosing days were labeled as green dashed vertical lines in the graph. […] EC17 dose-dependent temporary body weight loss was also observed in all tumor bearing mice, indicating the activation of CAR-Ts is EC17-dependent in these mice.

MDA-MB-231 cells = experiment: Bridge dose versus lysis and IFNγ release in MDA-MB-231 cell cultures (Example 43); type: cell-based, human; settings: 0.001 to 100,000 nM, Effector:Tumor 5:1
Protocol: as §1
Although a highly elevated and prolonged CRS can often lead to patient death, some level of CRS has been viewed as desirable, since patients displaying no evidence of CRS are not commonly observed to respond to CAR T cell therapies. […]

[2] = system: naïve mice without tumors; experiment: FITC-CAR-T proliferation, toxicity and cytokines in naïve mice (Example 37); type: in vivo
Protocol: The evaluation of FITC-CAR-T proliferation and related toxicity in both naïve mice and mice bearing FR+ tumor xenografts was tested. To evaluate whether FITC-CAR-T proliferation in vivo is dependent on the co-existence of the bridge (e.g. EC17) and the tumor antigen (e.g. folate receptor), FITC-CAR-T proliferation in vivo was compared in naïve mice and mice bearing FR+ tumor xenografts, either with or without EC17. 5-8 million CAR-T cells (as indicated in FIGS. 42 and 43) were administered (i.v.) into naïve mice without tumors and mice bearing FR+ tumor xenografts (80-200 mm3). 500 nmol/kg EC17 was dosed 4 hours before and three times per week post CAR-T administration, if desired. Mice were monitored for body weight changes and CAR-T cell count in blood circulation; some mice were also euthanized weekly to evaluate organs. […] CAR-T cell count in blood samples was also compared to evaluate CAR-T proliferation. […] Since the enlargement of spleen size is another indicator for CAR-T proliferation in vivo, spleen size was also measured as shown in FIG. 43B. […]
Cytokine levels including IFN were measured using LEGENDplex human cytokine panel kits (BioLegend, San Diego, Calif.) according to the manufacturer's instructions. Plasma samples were diluted with Assay Buffer, and then mixed with Capture beads immobilized with the antibody directed to the analyzed cytokine. After 2 hours incubation at room temperature with shaking, biotinylated Detection antibody to the analyzed cytokine was added and incubated for one more hour at room temperature with shaking. Phycoerythrin (PE) labeled streptavidin was then added to bind with biotin on the Detection antibody, and FACS was used to read the signal of PE on the binding complex (capture antibody-cytokine-detection antibody). The intensity of PE is proportional to the level of analyzed cytokine. A series of cytokine solutions with known concentrations were measured at the same time and used as standards to quantitate the cytokine levels in the analyzed samples.

Nc1nc2ncc(CNc3ccc(C(=O)NC(CCC(=O)NCCNC(=S)Nc4ccc(-c5c6ccc(=O)cc-6oc6cc(O)ccc56)c(C(=O)O)c4)C(=O)O)cc3)nc2c(=O)[nH]1 (stereo not shown) [EC17, FITC-Folate]
CAR-T cell proliferation (blood count, spleen size) [1]: did not proliferate | body weight ([1]; 5 million CAR-T, 5 weeks): No apparent body weight loss | anti-tumor activity (OV90): EC17 dependent anti-tumor activity | IFNγ production (KB cells; 100 nM): induced | proliferation of anti-fluorescein CAR T cells (KB cells): induced | tumor response (SKOV-3): stable disease | bridge dose with little effect on tumor cell lysis (MDA-MB-231 cells): below 0.01 nM | cytokine production (CAR-T activity) ([2]; 500 nmol/kg three times per week): not active in naïve mice | body weight ([2]; 500 nmol/kg three times per week or no EC17): did not show any apparent body weight loss | FITC-CAR-T proliferation ([2]; 5 or 8 million FITC-CAR-T cells): did not proliferate in naïve mice
